Values joined by “and” are separate entries in the source; they are usually repeats but may differ in a detail not shown here. Equal entries are not always repeated. Toxic doses and inconclusive results are not listed.
Tested on: CD2F1 mice, L1210 leukemia ip, survival T/C
Assay: NCI In Vivo Anticancer Drug Screen. Data for tumor model L1210 Leukemia (intraperitoneal) in CD2F1 (CDF1) mice
Settings: higher = longer survival
Outline: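 Ratio T/C, where T is the treated-group value and C the vehicle-dosed control value, from mice implanted with a transplantable tumor.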

SMILES: O=c1n(CC2CO2)c(=O)n(CC2CO2)n1CC1CO1 (configuration not stated)
- T/C (endpoint: median survival time, dose: 1.5 mg/kg/injection, schedule: Q01DX009 (ip), vehicle: saline): 113 % of control
- T/C (endpoint: median survival time, dose: 1.5 mg/kg/injection, schedule: Q03HX024 (ip), vehicle: saline): 121 % of control
- T/C (endpoint: median survival time, dose: 3.0 mg/kg/injection, schedule: Q03HX024 (ip), vehicle: saline): 195 % of control
- T/C (endpoint: median survival time, dose: 6.0 mg/kg/injection, schedule: Q01DX009 (ip), vehicle: saline): 182 % of control
- T/C (endpoint: median survival time, dose: 6.0 mg/kg/injection, schedule: Q03HX024 (ip), vehicle: saline): 253 % of control
- T/C (endpoint: median survival time, dose: 6.25 mg/kg/injection, schedule: Q01DX009 (ip), vehicle: saline): 168 % of control and 277 % of control
- T/C (endpoint: median survival time, dose: 7.5 mg/kg/injection, schedule: Q01DX003 (iv), vehicle: saline): 107 % of control
- T/C (endpoint: median survival time, dose: 7.5 mg/kg/injection, schedule: Q01DX005 (ip), vehicle: saline): 151 % of control
- T/C (endpoint: median survival time, dose: 10.0 mg/kg/injection, schedule: Q01DX005 (ip), vehicle: saline): 192 % of control
- T/C (endpoint: median survival time, dose: 12.0 mg/kg/injection, schedule: Q01DX009 (ip), vehicle: saline): 365 % of control
- T/C (endpoint: median survival time, dose: 12.0 mg/kg/injection, schedule: Q03HX008 (ip), vehicle: saline): 86 % of control
- T/C (endpoint: median survival time, dose: 12.0 mg/kg/injection, schedule: Q03HX024 (ip), vehicle: saline): 106 % of control
- T/C (endpoint: median survival time, dose: 12.5 mg/kg/injection, schedule: Q01DX009 (ip), vehicle: saline): 231 % of control and 277 % of control
- T/C (endpoint: median survival time, dose: 15.0 mg/kg/injection, schedule: Q01DX005 (ip), vehicle: saline): 210 % of control and 240 % of control
- T/C (endpoint: median survival time, dose: 15.0 mg/kg/injection, schedule: Q04DX003 (ip), vehicle: saline): 182 % of control
- T/C (endpoint: median survival time, dose: 15.0 mg/kg/injection, schedule: Q08DX002 (ip), vehicle: saline): 159 % of control
- T/C (endpoint: median survival time, dose: 24.0 mg/kg/injection, schedule: Q01DX009 (ip), vehicle: saline): 365 % of control
- T/C (endpoint: median survival time, dose: 25.0 mg/kg/injection, schedule: Q01DX001 (iv), vehicle: saline): 120 % of control
- T/C (endpoint: median survival time, dose: 25.0 mg/kg/injection, schedule: Q01DX009 (ip), vehicle: saline): 121 % of control and 277 % of control
- T/C (endpoint: median survival time, dose: 30.0 mg/kg/injection, schedule: Q01DX001 (ip), vehicle: saline): 195 % of control
- T/C (endpoint: median survival time, dose: 30.0 mg/kg/injection, schedule: Q01DX003 (iv), vehicle: saline): 171 % of control
- T/C (endpoint: median survival time, dose: 30.0 mg/kg/injection, schedule: Q01DX005 (ip), vehicle: saline): 92 % of control
- T/C (endpoint: median survival time, dose: 30.0 mg/kg/injection, schedule: Q04DX003 (ip), vehicle: saline): 731 % of control
- T/C (endpoint: median survival time, dose: 30.0 mg/kg/injection, schedule: Q08DX002 (ip), vehicle: saline): 198 % of control
- T/C (endpoint: median survival time, dose: 40.0 mg/kg/injection, schedule: Q01DX001 (ip), vehicle: saline): 186 % of control
- T/C (endpoint: median survival time, dose: 40.0 mg/kg/injection, schedule: Q04DX003 (ip), vehicle: saline): 292 % of control
- T/C (endpoint: median survival time, dose: 40.0 mg/kg/injection, schedule: Q08DX002 (ip), vehicle: saline): 256 % of control
- T/C (endpoint: median survival time, dose: 48.0 mg/kg/injection, schedule: Q01DX009 (ip), vehicle: saline): 106 % of control
- T/C (endpoint: median survival time, dose: 50.0 mg/kg/injection, schedule: Q01DX001 (iv), vehicle: saline): 157 % of control
- T/C (endpoint: median survival time, dose: 50.0 mg/kg/injection, schedule: Q08DX002 (ip), vehicle: saline): 731 % of control
- T/C (endpoint: median survival time, dose: 60.0 mg/kg/injection, schedule: Q01DX001 (ip), vehicle: saline): 731 % of control
- T/C (endpoint: median survival time, dose: 60.0 mg/kg/injection, schedule: Q01DX005 (oral), vehicle: saline): 182 % of control
- T/C (endpoint: median survival time, dose: 80.0 mg/kg/injection, schedule: Q01DX001 (ip), vehicle: saline): 97 % of control
- T/C (endpoint: median survival time, dose: 80.0 mg/kg/injection, schedule: Q01DX001 (iv), vehicle: saline): 89 % of control
- T/C (endpoint: median survival time, dose: 160.0 mg/kg/injection, schedule: Q01DX001 (oral), vehicle: saline): 175 % of control
- T/C (endpoint: median survival time, dose: 240.0 mg/kg/injection, schedule: Q01DX001 (oral), vehicle: saline): 97 % of control

SMILES: CCC12CC(Br)C(C1)OC2=O (configuration not stated)
- T/C (endpoint: mean survival time, dose: 100.0 mg/kg/injection, schedule: Q01DX009 (ip), vehicle: other): 96 % of control
- T/C (endpoint: mean survival time, dose: 200.0 mg/kg/injection, schedule: Q01DX009 (ip), vehicle: other): 101 % of control
- T/C (endpoint: mean survival time, dose: 400.0 mg/kg/injection, schedule: Q01DX009 (ip), vehicle: other): 100 % of control

SMILES: CN(N=O)c1ccc(CC2CCc3ccccc32)cc1 (configuration not stated)
- T/C (endpoint: mean survival time, dose: 100.0 mg/kg/injection, schedule: Q01DX009 (ip), vehicle: Klucel (hydroxypropylcellulose) (HPC)): 93 % of control
- T/C (endpoint: mean survival time, dose: 200.0 mg/kg/injection, schedule: Q01DX009 (ip), vehicle: Klucel (hydroxypropylcellulose) (HPC)): 98 % of control
- T/C (endpoint: mean survival time, dose: 400.0 mg/kg/injection, schedule: Q01DX009 (ip), vehicle: Klucel (hydroxypropylcellulose) (HPC)): 101 % of control

Reference: PubChem BioAssay AID256 (DTP/NCI, 2004)
